In patent publication US20230210888A1, “PHOTOTHERANOSTIC NANOAGENTS WITH EXCELLENT ATHEROSCLEROTIC PLAQUE-TARGETING AND PLAQUE-PENETRATING PROPERTIES, AND USE THEREOF” (Korea University Research and Business Foundation, priority 2021, published 2023):

Tests used:
[1] = Singlet oxygen generation (SOSG fluorescence) under 670 nm laser; format: physicochemical; settings: PBS with 1% Tween 20, 5 μM based on Ce6, 670 nm 50 mW/cm2, 0-120 s
Protocol: All three solutions contained 1 μM SOSG. The fluorescence intensity of SOSG (Ex(excitation)/Em(emission): 504 nm/525 nm) was measured by irradiating a laser (670 nm, 50 mW/cm^2) every 30 seconds from 0 to 120 seconds.

[2] = Skin phototoxicity after intravenous injection and 670 nm laser; format: in vivo, Balb/c mice; settings: 2 mg/kg (equiv. of Ce6) iv, 670 nm 50 mW/cm2 5 min 1 h after injection; 2nd and 3rd days
Protocol: One hour after injection, a near-infrared (670 nm) laser (50 mW/cm^2) was irradiated for 5 minutes.

With “(17S,18S)-18-(2-carboxyethyl)-20-(carboxymethyl)-12-ethenyl-7-ethyl-3,8,13,17-tetramethyl-17,18,22,23-tetrahydroporphyrin-2-carboxylic acid [Ce6]” as the substance, how does the “SOSG fluorescence intensity (singlet oxygen generation)” value [1] read?
Its value is “tendency to increase similarly to each other”.

And the “skin phototoxicity (erythema)” value [2]?
The value was “erythema occurred”.
